ChEMBL document CHEMBL1158618, “Two new asterosaponins, archasterosides A and B, from the Vietnamese starfish Archaster typicus and their anticancer properties” (Bioorg Med Chem Lett, 2010)
Calls of active or inactive are those of the source. The calls are words filed in the database; no cut-off is given here.

Experiments:
HeLa = experiment: Cytotoxicity against human HeLa cells by MTS assay; type: functional, cell-based
[1] = Cytotoxicity against mouse promotion-sensitive JB6 Cl41 cells by MTS assay; type: cell-based
[2] = Cytotoxicity against mouse promotion-sensitive JB6 Cl41 cells up to 50 uM by MTS assay; type: cell-based
[3] = molecular target: Cellular tumor antigen p53 (Mus musculus) (UniProt P02340); experiment: Induction of p53-dependent transcriptional activity in mouse JB6 Cl41 cells at 12.5 uM after 6 hrs; type: cell-based
Cellular tumor antigen p53 (Mus musculus), sequence (P02340 whole entry): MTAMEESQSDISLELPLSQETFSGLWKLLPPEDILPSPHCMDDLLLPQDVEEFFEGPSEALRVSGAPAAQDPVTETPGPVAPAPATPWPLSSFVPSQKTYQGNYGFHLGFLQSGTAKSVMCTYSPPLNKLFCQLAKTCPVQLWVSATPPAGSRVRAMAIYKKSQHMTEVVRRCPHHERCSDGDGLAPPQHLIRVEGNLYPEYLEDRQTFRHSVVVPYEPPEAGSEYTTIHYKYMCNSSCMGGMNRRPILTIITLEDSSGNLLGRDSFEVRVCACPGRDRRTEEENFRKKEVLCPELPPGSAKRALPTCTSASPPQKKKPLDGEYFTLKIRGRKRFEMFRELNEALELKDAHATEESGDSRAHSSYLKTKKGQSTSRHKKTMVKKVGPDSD

JB6 Cl41 = experiment: Induction of NF-kappaB-dependent transcriptional activity in mouse JB6 Cl41 cells at 125 uM after 6 hrs; type: cell-based
[4] = molecular target: Transcription factor Jun (Mus musculus) (UniProt P05627); experiment: Induction of AP1-dependent transcriptional activity in mouse JB6 Cl41 cells at 125 uM after 6 hrs; type: cell-based
Transcription factor Jun (Mus musculus), sequence (P05627 whole entry): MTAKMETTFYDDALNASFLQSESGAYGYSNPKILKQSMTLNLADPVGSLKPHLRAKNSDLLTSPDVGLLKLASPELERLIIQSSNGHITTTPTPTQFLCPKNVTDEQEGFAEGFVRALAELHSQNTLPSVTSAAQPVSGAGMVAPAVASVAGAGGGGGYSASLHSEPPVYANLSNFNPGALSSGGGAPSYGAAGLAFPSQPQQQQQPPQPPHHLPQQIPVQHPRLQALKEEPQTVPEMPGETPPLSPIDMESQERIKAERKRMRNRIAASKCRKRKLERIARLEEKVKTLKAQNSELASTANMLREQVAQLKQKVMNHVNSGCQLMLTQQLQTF

| Structure (SMILES) | IC50 (HeLa) [µM] | IC50 [1] [µM] | Activity [2] | fold change (FC) [3] | Activity (JB6 Cl41) | fold change (FC) [4] |
| --- | --- | --- | --- | --- | --- | --- |
| CC[C@@H](C(C)C)[C@@H]1O[C@H]1[C@@](C)(O)[C@H]1[C@@H](O)C[C@H]2[C@@H]3C[C@H](O[C@@H]4O[C@H](CO)[C@@H](O)[C@H](O[C@@H]5O[C@H](C)[C@@H](O[C@@H]6O[C@H](C)[C@@H](O)[C@H](O)[C@H]6O[C@@H]6O[C@H](C)[C@H](O)[C@H](O)[C@H]6O)[C@H](O)[C@H]5O[C@@H]5O[C@H](C)[C@@H](O)[C@H](O)[C@H]5O)[C@H]4O)[C@H]4C[C@@H](OS(=O)(=O)O)CC[C@]4(C)C3=CC[C@]12C [ARCHASTEROSIDE A] | 24 | 37 | – | – | – | – |
| CC(C)[C@H](C)[C@@H]1O[C@H]1[C@@](C)(O)[C@H]1[C@@H](O)C[C@H]2[C@@H]3C[C@H](O[C@@H]4O[C@H](CO)[C@@H](O)[C@H](O[C@@H]5O[C@H](C)[C@@H](O[C@@H]6O[C@H](C)[C@@H](O)[C@H](O)[C@H]6O[C@@H]6O[C@H](C)[C@H](O)[C@H](O)[C@H]6O)[C@H](O)[C@H]5O[C@@H]5O[C@H](C)[C@@H](O)[C@H](O)[C@H]5O)[C@H]4O)[C@H]4C[C@@H](OS(=O)(=O)[O-])CC[C@]4(C)C3=CC[C@]12C.[Na+] [REGULAROSIDE A] | 110 | – | Non-toxic | – | – | – |
| CC(C)CCC[C@@](C)(O)[C@H]1[C@@H](O)C[C@H]2[C@@H]3C[C@H](O[C@@H]4O[C@H](C)[C@@H](O)[C@H](O[C@@H]5O[C@H](C)[C@@H](O[C@@H]6O[C@H](C)[C@@H](O)[C@H](O)[C@H]6O[C@@H]6O[C@H](C)[C@H](O)[C@H](O)[C@H]6O)[C@H](O)[C@H]5O[C@@H]5O[C@H](C)[C@@H](O)[C@H](O)[C@H]5O)[C@H]4O)[C@H]4C[C@@H](OS(=O)(=O)O)CC[C@]4(C)C3=CC[C@@]21C [ARCHASTEROSIDE B] | 14 | 18 | – | 1.3 | inactive | 1.7 |
